The record followed here is paper PMC4782294, “ERK mediated upregulation of death receptor 5 overcomes the lack of p53 functionality in the diaminothiazole DAT1 induced apoptosis in colon cancer models: efficiency of DAT1 in Ras-Raf mutated cells” (Molecular Cancer, 2016).

For one series, the system named is HCT116 p53 -/-. Kind of series: MTT cytotoxicity assay. The note with it: Homo sapiens, HCT-116, 48 h. It is filed as cell-based. On the procedure: (§1) Cells were seeded in 96 well plates. At about70 % confluency, they were treated with different concentrations of drugs either individually or in combination. After 48 h, MTT assay was done (Mossmann 1983) and absorbance was measured at 570 nm (Biorad Microplate reader). Percentage viability was plotted against the respective concentrations of the drugs and half inhibitory concentration (IC50) was calculated with the non linear regression programme of Origin.

In series [1] the test system is HCT116. Put plainly: MTT cytotoxicity assay. It is filed as cell-based. The settings on record: Homo sapiens, HCT-116, HCT116, 48 h. As for the experimental part:
as §1

A further series concerns HT 29. Kind of series: MTT cytotoxicity assay. The settings on record: Homo sapiens, HT 29, 48 h. It is filed as cell-based. As for the experimental part: as §1
The next series deals with SW 480. Put plainly: MTT cytotoxicity assay. The series is classed as cell-based. The note with it: Homo sapiens, SW480, SW 480, 48 h. On the procedure:
as §1

For another series, the system named is SW 620. Kind of series: MTT cytotoxicity assay. The settings on record: Homo sapiens, SW 620, 48 h. The series is classed as cell-based. On the procedure:
as §1

A further series concerns HCT116 p53 −/−. Kind of series: DAPI staining for detection of apoptosis (chromatin condensation). The series is classed as cell-based. As for the experimental part:
(§2) The cells were grown on coverslips in 24 well plates and incubated with respective drug or inhibitor for 24 h. They were then washed with PBS, fixed with chilled methanol-EDTA for 10 min and rehydrated with PBS for 10 min at room temperature. Successively, the cells were treated with DAPI (0.5 μg/ml) for 2 min in the dark. The coverslips were then mounted on fluoromount G and viewed at 40X in the UV region using a fluorescence microscope (Olympus IX71).

Series [2] concerns HCT116. The description is as above. It is filed as cell-based. As for the experimental part:
as §2

The next series has as its system Caco 2. Kind of series: MTT cytotoxicity assay. The note with it: Homo sapiens, Caco 2, 48 h. The series is classed as cell-based. As for the experimental part:
as §1

Series [3] has as its system Colo 320 DM. Kind of series: MTT cytotoxicity assay. It is filed as cell-based. The settings on record: Homo sapiens, 48 h. On the procedure: as §1
A further series relates to Caco2. Put plainly: DAPI staining for detection of apoptosis (chromatin condensation). It is filed as cell-based. The settings on record: Caco2, approximately 1.5 times the IC50 concentration, 24 h. As for the experimental part: as §2
The subject of series [4] is Colo 320 DM. The series is described as above. The series is classed as cell-based. The note with it: approximately 1.5 times the IC50 concentration, 24 h. On the procedure: as §2
For series [5], the system named is HCT116 p53 −/− xenograft tumours. Put plainly: Colon cancer xenograft study. It is filed as in vivo, SCID/NOD mice. On the procedure: (§3) SCID/NOD mice were divided into groups of ten and allowed to acclimatize. After 5 days, tumours were raised by injecting HCT116 or HCT116 p53 −/− cells (1.5 × 10^5 cells suspended in PBS) subcutaneously in the inner flank region. Once the tumour volumes reached 20–80 mm^3, drug was administered intraperitoneally, thrice a week at different concentrations.

The next series deals with HCT116 xenograft tumours. Kind of series: Colon cancer xenograft study. It is filed as in vivo, SCID/NOD mice. On the procedure:
as §3

Series [6] deals with Swiss Albino mice. Kind of series: Acute toxicity study. It is filed as in vivo. The note with it: for Final weight: after 14 days; for Initial weight: before drug administration. On the procedure:
In acute toxicity studies, Swiss Albino mice were divided in to six groups of six animal each and DAT1 (12–50 mg/kg) was administered intraperitoneally (i.p) and observed for 14 days for signs of weight loss, dehydration or mortality. DAT1 was dissolved in vehicle cremaphor:ethanol (1:1) and diluted in 0.9 % saline.
Swiss Albino mice were divided into 6 groups of 6 mice each and were injected with either DAT1 or vehicle intraperitoneally. […] Group I: 12mg/kg, Group II: 20 mg/kg, Group III: 30 mg/kg, Group IV: 40 mg/kg, Group V: 50 mg/kg

Series [7] deals with Swiss Albino mice. Put plainly: Sub-acute toxicity study. It is filed as in vivo. The settings on record: for RBC / WBC / ALP / ALT / AST / BUN / Creatinine: 3 months; for ALP / ALT / AST / BUN / Creatinine: serum. As for the experimental part: In sub-acute toxicity studies, Swiss albino mice were divided into five groups of eight animals each. Three groups of Swiss Albino mice were administered (i.p injection) with 4, 8 or 16 mg/kg DAT1, and the control and vehicle control groups were administered with 0.9 % saline or vehicle respectively. Injections were given every alternate day for the first 10 days and after that, twice weekly for a period of 3 months. After 3 months animals were sacrificed and whole blood, liver and kidney were collected. Hematotoxicity was checked by RBC and WBC count. Hepatotoxicity was measured by monitoring the serum ALT and AST levels. Nephrotoxicity was measured by monitoring BUN and creatinine levels in the serum. ALP activity was measured for detection of liver or bone toxicity.

In a further series the test system is DR5. Kind of series: DR5 induction by western blotting. The note with it: cells with non functional p53 (HCT116 p53 −/−, SW620, SW480, HT29), ~1.5 X IC50. The series is classed as cell-based. As for the experimental part: (§4) Cells were grown to 70–80 % confluency in 60 mm culture dishes. After drug treatment, they were harvested and lysed. Protein samples from tissues were collected by homogenizing the tissue in the presence of lysis buffer, followed by centrifugation for 20 min. The protein samples were run in a 10–12 % gel and transferred on to a PVDF membrane. The membranes were probed with specific primary antibodies (1:1000) overnight followed by secondary antibodies conjugated with horse radish peroxidase/alkaline phosphatase (1:2000) for 1 hr at room temperature and were developed by chemiluminescence or alkaline phosphatase method.

In another series the test system is ERK. Kind of series: ERK activation by western blotting. The series is classed as cell-based. As for the experimental part:
as §4

For a further series, the system named is caspase 8. Put plainly: Caspase 8 activation by western blotting. It is filed as cell-based. The note with it: cell lines irrespective of their p53 status. On the procedure: as §4

Consider `CC(=O)O[C@H]1C(=O)[C@@]2(C)[C@H]([C@H](OC(=O)c3ccccc3)[C@]3(O)C[C@H](OC(=O)[C@H](O)[C@@H](NC(=O)c4ccccc4)c4ccccc4)C(C)=C1C3(C)C)[C@]1(OC(C)=O)CO[C@@H]1C[C@@H]2O` [Taxol, paclitaxel], for which the concentration for half-maximal inhibition (IC50) in the series with HCT116 p53 -/- stood at 6 ± 2 nM; in the series with HCT116 [1] it was 14 ± 7 nM; with HT 29, 10 ± 1.4 nM; with SW 480, 31.5 ± 1.4 nM; in the series with SW 620, 24.5 ± 6 nM.
Regarding `O=c1[nH]cc(F)c(=O)[nH]1` [5 fluoro uracil, 5-fluorouracil], the IC50 in the series on HCT116 p53 -/- amounted to 19300 ± 1340 nM; in the series with HCT116 [1], 8690 ± 540 nM; in the series on HT 29, 20200 ± 770 nM; in the series on SW 480, 18600 ± 680 nM; in the series with SW 620 it was 9650 ± 330 nM.
As for `CC[C@]1(O)C[C@@H]2CN(CCc3c([nH]c4ccccc34)[C@@](C(=O)OC)(c3cc4c(cc3OC)N(C)[C@H]3[C@@](O)(C(=O)OC)[C@H](OC(C)=O)[C@]5(CC)C=CCN6CC[C@]43[C@@H]65)C2)C1` [Vinblastine], the IC50 came out at 19.5 ± 0.7 nM in the series on HCT116 p53 -/-; 4 ± 2 nM in the series on HCT116 [1]; 1.5 ± 0.7 nM in the series with HT 29; 3380 ± 247 nM in the series with SW 480; 300 ± 90 nM in the series on SW 620. Also, the apoptosis induction entry is given as “failed to induce apoptosis” in the series with HCT116 p53 −/− (0.01 μM, 24 h) and “large apoptotic response” in the series with HCT116 [2] (HCT116 p53 wild type, 0.01 μM, 24 h).
In the case of `COc1ccc(Nc2nc(N)c(C(=O)c3ccccc3)s2)cc1` [DAT1, 4-Amino-5-benzoyl-2-(4-methoxyphenylamino)thiazole], the IC50 in the series with Caco 2 amounted to 5320 ± 162 nM; in the series on Colo 320 DM [3], 655 ± 48 nM; in the series with HCT116 p53 -/- it was 709 ± 80 nM; with HCT116 [1], 300 ± 80 nM; in the series on HT 29 it was 200 ± 80 nM; with SW 480, 795 ± 90 nM. In addition, the IC50 in the series with SW 620 was found to be 420 ± 70 nM. The “apoptosis (chromosome condensation)” value was determined as 32% in the series on Caco2 and 38% with Colo 320 DM [4]. Moreover, the “percentage of apoptotic cells” value in the series with HCT116 p53 −/− (DAT1 alone, 24 h) is given as 60%; in the series with HCT116 p53 −/− (DAT1 in the presence of MEK inhibitor U0126), 5%; in the series on HCT116 [2] (HCT116, DAT1 alone, 24 h), 67%; with HCT116 [2] (HCT116, DAT1 in the presence of MEK inhibitor U0126), 3%. In addition, in series [5] (20 mg/kg), the “reduction in tumour inhibition vs parental HCT116” value is recorded as “about 19%”. Moreover, the tumour inhibition turned out to be 53.4% in series [5] (HCT116 p53 −/− tumours, 20 mg/kg i.p., thrice a week, 28 days) and 72.3% with HCT116 xenograft tumours (HCT116 tumours, 20 mg/kg i.p., thrice a week, 28 days). Besides, the mean tumour volume result in [5] (HCT116 p53−/− xenograft, treatment for 28 days, i.p.) is recorded as “reduced the mean tumour volume effectively in a concentration dependent way”; with HCT116 xenograft tumours (HCT116 xenograft, treatment for 28 days, i.p.) it was “reduced the mean tumour volume effectively in a concentration dependent way”. Moreover, the Final weight is given as 33.1 ± 1.56 g in the series on Swiss Albino mice [6] (12 mg/kg i.p.); 33.46 ± 3.87 g with Swiss Albino mice [6] (20 mg/kg i.p.); 29.86 ± 2.82 g in the series on Swiss Albino mice [6] (30 mg/kg i.p.); 27.8 ± 2.67 g with Swiss Albino mice [6] (40 mg/kg i.p.); 26.12 ± 2.14 g with Swiss Albino mice [6] (50 mg/kg i.p.). Besides, the Initial weight in the series with Swiss Albino mice [6] (12 mg/kg i.p.) is on record as 32.4 ± 1.34 g; in the series with Swiss Albino mice [6] (20 mg/kg i.p.), 32.8 ± 5.44 g; in the series with Swiss Albino mice [6] (30 mg/kg i.p.), 27.2 ± 1.22 g; with Swiss Albino mice [6] (40 mg/kg i.p.) it was 26.6 ± 2.4 g; in the series with Swiss Albino mice [6] (50 mg/kg i.p.) it was 25.6 ± 2.03 g. Also, the RBC with Swiss Albino mice [7] (4 mg/kg i.p.) came out at 4.42 ± 0.75 million/mm^3; in the series with Swiss Albino mice [7] (8 mg/kg i.p.) it was 4.48 ± 0.34 million/mm^3; with Swiss Albino mice [7] (16 mg/kg i.p.), 4.475 ± 0.26 million/mm^3. Besides, the results for the WBC with Swiss Albino mice [7] (4 mg/kg i.p.), with Swiss Albino mice [7] (8 mg/kg i.p.) and in the series with Swiss Albino mice [7] (16 mg/kg i.p.) were 8100 ± 1979 per mm^3, 6220 ± 1626.34 per mm^3 and 4550 ± 264.575 per mm^3, respectively. Besides, the ALP in the series with Swiss Albino mice [7] (4 mg/kg i.p.) is recorded as 158.32 ± 8.32 U/L; with Swiss Albino mice [7] (8 mg/kg i.p.), 136.48 ± 10.69 U/L; with Swiss Albino mice [7] (16 mg/kg i.p.), 155.61 ± 15.15 U/L. The ALT in the series on Swiss Albino mice [7] (4 mg/kg i.p.) is reported as 54.38 ± 4.15 U/L; in the series with Swiss Albino mice [7] (8 mg/kg i.p.), 53.845 ± 4.81 U/L; with Swiss Albino mice [7] (16 mg/kg i.p.), 148.39 ± 14.55 U/L. Further, the figures for the AST in the series with Swiss Albino mice [7] (4 mg/kg i.p.), with Swiss Albino mice [7] (8 mg/kg i.p.) and in the series with Swiss Albino mice [7] (16 mg/kg i.p.) were 128 ± 25.1 U/L, 128.165 ± 1.87 U/L and 162.67 ± 12.73 U/L, respectively. The results for the BUN in the series with Swiss Albino mice [7] (4 mg/kg i.p.) and in the series with Swiss Albino mice [7] (16 mg/kg i.p.) were 29.8 ± 1.25 mg/dL and 29.8 ± 1.27 mg/dL, respectively. Moreover, the results for the Creatinine with Swiss Albino mice [7] (4 mg/kg i.p.), in the series with Swiss Albino mice [7] (8 mg/kg i.p.) and in the series on Swiss Albino mice [7] (16 mg/kg i.p.) were 0.82 ± 0.1 mg/dL, 0.76 ± 0.07 mg/dL and 0.58 ± 0.09 mg/dL, respectively. Also, in the series with Swiss Albino mice [7] (4, 8 or 16 mg/kg i.p., end of 3 months), the body weight change entry is reported as “no significant change in the weight”. Further, the DR5 upregulation entry with DR5 is “caused DR5 upregulation”. Also, the ERK activation entry with ERK (Colo 320 DM or Caco2 cell lines with wild type Ras or Raf, ~1.5 times IC50) is on record as “unable to activate ERK”. The P-ERK activation entry with ERK (HCT116 and HCT116 p53−/− cells) is given as “caused P-ERK activation”. The “caspase 8 activation” value in the series on caspase 8 was “caused caspase 8 activation”.
